Results on 1 molecule are retold here after patent US20230339890A1, “AMINO ALCOHOL COMPOUNDS AND USES THEREOF” (Kineta, Inc., priority 2020, published 2023).

Each structure is given as a SMILES string.

One experiment deals with TDP-43-expressing yeast. As to the kind of experiment: Yeast TDP-43 model viability (resazurin-reduction endpoint). Particulars: 2-fold serial dilution applied for 24 hours. It counts as cell-based. The protocol: (§1) (FIG. 1A) Structure of the Erg11 inhibitor and anti-fungal, fluconazole. […] A 2-fold serial dilution of fluconazole was applied to TDP-43-expressing yeast for 24 hours prior to analysis. (FIG. 1C) Wild-type yeast cultures were treated with fluconazole for eight hours prior to HPLC analysis for lanosterol and ergosterol. Data are expressed as the area under the curve (AUC) normalized to cell mass based on optical density of cultures at 600 nm.
The toxic gain of function features of TDP-43 can be faithfully recapitulated in the simple model organism, budding yeast, where the protein also localizes to stress granules. […] The yeast model thus provides a robust cell-based screening platform for small molecules capable of ameliorating toxicity. To validate compounds from such phenotypic screens, it is imperative to test compounds in a mammalian neuronal context. In an effort to develop TDP-43-related mammalian models of neuron loss that occurs in ALS and FTD, primary cultures of rat cortical neurons were transfected with human wild type or Q331K mutant TDP-43. These cells were compared to cells which received an empty expression vector control. […] In the experiments described in this example, this model system is used to interrogate new therapeutic approaches to ameliorate TDP-43 toxicity.
Fluconazole is an antifungal known to inhibit Erg11, the yeast lanosterol 14-alpha demethylase (FIG. 1B). […]
(Resazurin is reduced to fluorescent resorufin, in cell work by metabolically active cells.)

A further experiment deals with Erg11. As to the kind of experiment: HPLC analysis of lanosterol and ergosterol in wild-type yeast cultures. It counts as cell-based. Particulars: wild-type yeast treated for eight hours. The protocol: as §1
Fluconazole is an antifungal known to inhibit Erg11, the yeast lanosterol 14-alpha demethylase (FIG. 1B). […] CYP51A1 has also been known as lanosterol 14-alpha demethylase, which describes its function in removing the 14-alpha-methyl group from lanosterol to generate 4,4-dimethylcholesta-8(9), 14, 24-trien-3β-ol, which is a critical step in the cholesterol biosynthetic pathway.

As to `OC(Cn1cncn1)(Cn1cncn1)c1ccc(F)cc1F` [fluconazole], in the experiment on TDP-43-expressing yeast, the “viability of TDP-43-expressing yeast” value is reported as “rescues viability”. Besides, the “viability of TDP-43-expressing yeast” value in the experiment with TDP-43-expressing yeast (listed as Fluconazole) was “restored viability”. In the experiment on Erg11, the “ergosterol (AUC normalized to cell mass)” value was “reduces ergosterol” and the “lanosterol (AUC normalized to cell mass)” value was “increase in the Erg11 substrate, lanosterol”.
